Results from patent US20240165097A1, “PHARMACEUTICAL COMPOSITION FOR THE TREATMENT OF ALZHEIMER'S DISEASE OR DEMENTIA” (Heptares Therapeutics Limited, priority 2021, published 2024).
“Also recorded” adds a separate entry of the source. Where two headings read alike, the source gives them in different places.

Assay: Example D: HTL0018318 plasma pharmacokinetics
Assay type: in vivo, human
Experimental: Selected plasma pharmacokinetics (PK) parameters for HTL0018318 were estimated during the period over which PD assessments were made. Details of assessment times for all endpoints are described below.
Pharmacokinetics (PK) were evaluated via blood samples, for determination of HTL0018318 concentrations in plasma. Blood samples were collected during clinic visits before morning dose administration and 1, 2, and 4 hours after dose administration, on Day 1, Day 6, Day 11, Day 16, Day 28, and Day 35 (follow-up visit). Bioanalysis used a fully validated method and all samples were analysed within the established period of storage stability. Validated Phoenix® WinNonlin® Version 6.4 was used to derive PK parameters.
All safety analyses used the safety set (SAF; randomised dose). The SAF (randomised dose) included all randomised patients who received at least one dose of the study drug; treatment group assignment was based on the initial randomised dose. All efficacy analyses were considered exploratory and used the full analysis set (FAS). The FAS included all randomised patients with at least one post-baseline efficacy measurement; treatment group assignment was based on the initial randomised dose. All summaries and analyses of PK data used the pharmacokinetic set (PKS). The PKS included all randomised patients with valid PK assessments; treatment group assignment was based on actual dose received.

With `CCOC(=O)N1C2CCC1CC(N1CCC3(CC1)CNC(=O)C3)C2` (stereo not drawn) [HTL0018318, ethyl 3-(3-oxo-2,8-diazaspiro[4.5]dec-8-yl)-8-azabicyclo[3.2.1]octane-8-carboxylate] the “Ctrough, arithmetic mean ± SD” value (5 mg, visit day 6) was 14.2 ± 12.1 ng/mL, the “Ctrough, arithmetic mean ± SD” value (5 mg, visit day 11) was 13.7 ± 10.3 ng/mL and the “Ctrough, arithmetic mean ± SD” value (10 mg, visit day 6) was 7.55 ± 4.72 ng/mL. The “Ctrough, mean” value (10 mg, visit day 11, n = 2) was 5.47 ng/mL, the “Ctrough, arithmetic mean ± SD” value (15 mg, visit day 6) was 19.0 ± 25.7 ng/mL and the “Ctrough, arithmetic mean ± SD” value (15 mg, visit day 11) was 27.9 ± 40.7 ng/mL. For the same compound, the “Cmax, arithmetic mean ± SD” value (25 mg, visit day 28) was 223 ± 134 ng/mL, the “dose-exposure proportionality (Cmax, AUC0-4 h)” value (5-25 mg) was “Dose-exposure proportionality was confirmed; also recorded: increased proportionally across 5-25 mg doses” and the “steady-state achieved with daily dosing” value (any given dose level) was 5 days. It also gave an AUC(0-t) (human, plasma, 5 mg, visit day 1, read-out: AUC0-4 h, arithmetic mean ± SD) of 113 ± 57.6 ng·h/mL, a Cmax (human, plasma, 5 mg, visit day 1, read-out: Cmax, arithmetic mean ± SD) of 40.3 ± 24.4 ng/mL and an AUC(0-t) (human, plasma, 5 mg, visit day 6, read-out: AUC0-4 h, arithmetic mean ± SD) of 146 ± 53.1 ng·h/mL. The Cmax (human, plasma, 5 mg, visit day 6, read-out: Cmax, arithmetic mean ± SD) was 50.5 ± 15.6 ng/mL, the AUC(0-t) (human, plasma, 5 mg, visit day 11, read-out: AUC0-4 h, arithmetic mean ± SD) was 149 ± 70.6 ng·h/mL and the Cmax (human, plasma, 5 mg, visit day 11, read-out: Cmax, arithmetic mean ± SD) was 48.3 ± 19.6 ng/mL. The AUC(0-t) (human, plasma, 5 mg, visit day 16, read-out: AUC0-4 h, arithmetic mean ± SD) was 132 ± 56.2 ng·h/mL, the Cmax (human, plasma, 5 mg, visit day 16, read-out: Cmax, arithmetic mean ± SD) was 46.4 ± 18.9 ng/mL and the AUC(0-t) (human, plasma, 5 mg, visit day 28, read-out: AUC0-4 h, arithmetic mean ± SD) was 144 ng·h/mL. For the same compound, the Cmax (human, plasma, 5 mg, visit day 28, read-out: Cmax, arithmetic mean ± SD) was 51.8 ng/mL, the AUC(0-t) (human, plasma, 10 mg, visit day 6, read-out: AUC0-4 h, arithmetic mean ± SD) was 244 ± 88 ng·h/mL and the Cmax (human, plasma, 10 mg, visit day 6, read-out: Cmax, arithmetic mean ± SD) was 82.4 ± 31.6 ng/mL. For the same compound, the AUC(0-t) (human, plasma, 10 mg, visit day 11, n = 2, read-out: AUC0-4 h, mean [minimum, maximum]) was 231 ng·h/mL, the Cmax (human, plasma, 10 mg, visit day 11, read-out: Cmax, arithmetic mean ± SD) was 69.7 ± 33.6 ng/mL and the AUC(0-t) (human, plasma, 10 mg, visit day 16, n = 1, read-out: AUC0-4 h) was 302 ng·h/mL. For the same compound, the Cmax (human, plasma, 10 mg, visit day 16, n = 1, read-out: Cmax) was 87.5 ng/mL, the AUC(0-t) (human, plasma, 10 mg, visit day 28, n = 1, read-out: AUC0-4 h) was 222 ng·h/mL and the Cmax (human, plasma, 10 mg, visit day 28, n = 1, read-out: Cmax) was 89 ng/mL. It also gave an AUC(0-t) (human, plasma, 15 mg, visit day 6, read-out: AUC0-4 h, arithmetic mean ± SD) of 315 ± 163 ng·h/mL, a Cmax (human, plasma, 15 mg, visit day 6, read-out: Cmax, arithmetic mean ± SD) of 106 ± 54 ng/mL and an AUC(0-t) (human, plasma, 15 mg, visit day 11, read-out: AUC0-4 h, arithmetic mean ± SD) of 379 ± 77.5 ng·h/mL. The Cmax (human, plasma, 15 mg, visit day 11, read-out: Cmax, arithmetic mean ± SD) was 126 ± 29.3 ng/mL, the AUC(0-t) (human, plasma, 15 mg, visit day 16, read-out: AUC0-4 h, arithmetic mean ± SD) was 422 ± 94.5 ng·h/mL and the Cmax (human, plasma, 15 mg, visit day 16, read-out: Cmax, arithmetic mean ± SD) was 136 ± 31.4 ng/mL. The AUC(0-t) (human, plasma, 15 mg, visit day 28, read-out: AUC0-4 h, arithmetic mean ± SD) was 368 ng·h/mL, the Cmax (human, plasma, 15 mg, visit day 28, read-out: Cmax, arithmetic mean ± SD) was 123 ng/mL and the AUC(0-t) (human, plasma, 25 mg, visit day 11, read-out: AUC0-4 h, arithmetic mean ± SD) was 650 ± 302 ng·h/mL. It also gave a Cmax (human, plasma, 25 mg, visit day 11, read-out: Cmax, arithmetic mean ± SD) of 222 ± 102 ng/mL, an AUC(0-t) (human, plasma, 25 mg, visit day 16, read-out: AUC0-4 h, arithmetic mean ± SD) of 728 ± 359 ng·h/mL and a Cmax (human, plasma, 25 mg, visit day 16, read-out: Cmax, arithmetic mean ± SD) of 243 ± 108 ng/mL. The AUC(0-t) (human, plasma, 25 mg, visit day 28, read-out: AUC0-4 h, arithmetic mean ± SD) was 668 ng·h/mL, the Cmax (human, plasma, 25 mg, visit day 28, read-out: Cmax, arithmetic mean ± SD) was 224 ng/mL and the concentration at 16 day (human, plasma, 5 mg, visit day 16, read-out: Ctrough, arithmetic mean ± SD) was 14.1 ± 10.8 ng/mL. The concentration at 28 day (human, plasma, 5 mg, visit day 28, read-out: Ctrough, arithmetic mean ± SD) was 14.2 ± 12.3 ng/mL, the concentration at 16 day (human, plasma, 10 mg, visit day 16, n = 1, read-out: Ctrough) was 8.25 ng/mL and the concentration at 28 day (human, plasma, 10 mg, visit day 28, n = 1, read-out: Ctrough) was 6.41 ng/mL. For the same compound, the concentration at 16 day (human, plasma, 15 mg, visit day 16, read-out: Ctrough, arithmetic mean ± SD) was 29.4 ± 38.5 ng/mL, the concentration at 28 day (human, plasma, 15 mg, visit day 28, read-out: Ctrough, arithmetic mean ± SD) was 23.2 ± 16 ng/mL and the concentration at 11 day (human, plasma, 25 mg, visit day 11, read-out: Ctrough, arithmetic mean ± SD) was 22.2 ± 21.8 ng/mL. For the same compound, the concentration at 16 day (human, plasma, 25 mg, visit day 16, read-out: Ctrough, arithmetic mean ± SD) was 66.7 ± 80.4 ng/mL, the concentration at 28 day (human, plasma, 25 mg, visit day 28, read-out: Ctrough, arithmetic mean ± SD) was 40.3 ± 30.6 ng/mL and the Tmax (human, plasma, all doses, read-out: Tmax (median)) was 1 to 2 h.
